Laboratory results published in patent US4666897A, “Inhibition of mammalian collagenolytic enzymes by tetracyclines” (Research Foundation of State University, priority 1983, dated 1987).

Key:
[1] = molecular target: T1, rat PMNL collagenolytic activity (PMNL collagenase) (Rattus norvegicus, UniProt O88766); experiment: Rat PMNL collagenolytic activity in vitro (14C-collagen gel lysis); format: biochemical
T1 construct: An extract of PMNLs was prepared; from tissue; host or cells: extract of peritoneal exudate polymorphonuclear leucocytes of non-diabetic rats, elicited with glycogen
Procedure: To test the effect of physiologic levels of minocycline (the concentration in human serum, during a therapeutic regimen, is approximately 2 ug/ml; that in the gingival crevicular fluid is 4-5 times greater; Ciancio, et. al., 1980, J. Periodontol., 51, 531-534) on mammalian collagenolytic activity in vitro, peritonealexudate polymorphomuclear leucocytes (PMNLs) were collected from 15 mole (non-diabetic) rats 4 hours after I.P. injection of 0.15% glycogen. An extract of PMNLs was prepared, 250 μl aliquots of this extract were incubated with ^14 C-glycine labeled collagen fibrils for 14 hours at 35° C. (in the presence or absence of minocycline, or EDTA, or additional CaCl2), and collagenolytic activity was measured as described by Nicoll, et al., (Experientia., 37, 315-317).
The techniques used to measure the collagenolytic enzyme activity of gingival tissue in culture, and in polymorphonuclear leucocytes (PMNLs), are those described by Golub, et. al., (J. Dent. Res., 57, 520-525 (197)8) and Nicoll, et. al., (Experimentia, 37, 315-317, (1981)) with minor modifications.

[2] = system: GCF collagenase and gingival disease in non-diabetic male; experiment: Human GCF study, non-diabetic; format: in vivo
Procedure: In a separate study involving humans, gingival crevicular fluid (GCF) samples were collected on filter paper strips inserted into 8 interproximal pockets of selected teeth in the maxillary arch of two twin brothers with juvenile-onset (insulin-dependent) diabetes mellitus. Fluid volume was immediately determined on a modified Periotron (Model 6000, Harco Electronics Ltd., Winnipeg, Canada); then incubated with 10 μl (^3 H-methyl) collagen (20,675 DPM) and 70 μl buffer (50 mM Tris-HCl, pH 7.8, containing 0.2 M sodium chloride and 5 mM calcium chloride). The GCF samples (or reagent blanks or trypsin controls) were incubated at 27° C. for 18 hours with gentle shaking. The reaction was stopped and undigested collagen precipitated by adding 10 μl 0.1 M phenanthroline in dioxane/water (1:1, v/v), 10 μl of nonradioactive methylated carrier collagen (2 mg/ml) in 50 mM Tris-HCl buffer containing 1M NaCl (pH 7.0), and 100 μl dioxane. After mixing, the radiolabeled collagen degradation products were collected by filtration and counted in a liquid scintillation spectrometer (Golub, et. al., 1976, J. Dent. Res., 55, 1049). Using this technique, the reaction blank (no enzyme or GCF added) released about 10% of the total substrate counts; 2-20 ng bacterial collagenase produced a linear increase in the release of radioactive counts from the ^3 H-collagen substrate (the 20 ng level of enzyme degraded 60% of the collagen substrate); and 50 ng trypsin released less than 1% of the counts above blank values. GCF collagenase activity was expressed as units of equivalent activity of vertebrate collagenase (obtained from New England Nuclear, Cat. No. NEK-016); 1 unit was operationally defined as the amount of enzyme that degrades 1 μg of collagen per hour at 27° C.
[…] PD=4.2 mm±0.3), and GCF collagenolytic activity was measured as described above. […] Two additional GCF samples were collected from the same 4 mm pocket, in this patient, before and after minocycline therapy. These samples were incubated with 10 μl ^3 H-collagen for 18 hours (22° C.), then thermally denatured and the collagen subunits and collagenase digestion products were separated by SDS-polyacrylamide gel electrophoresis (Nicoll, et. al., Experientia., 37, 315-317 (1981)). The gels were processed for fluorography (see Sodek, et. al., J. Periodontal. Res., 16, 425-433 (1981)) and exposed to Kodak X A R-5 film for 3 days.

germfree diabetic rats = experiment: Gingival collagenolytic activity, bone loss and skin collagen in germ-free streptozotocin-diabetic rats; format: in vivo, rat
Procedure: At this time (6 weeks after purchase), diabetes was induced in some of the animals, as described above in a), and the control and diabetic animals maintained under germfree conditions for an additional 6 weeks prior to sacrifice. […] Blood and tissues were then obtained to assess gingival collagenolytic enzyme activity and the loss of skin collagen and bone. The results are set forth below and illustrated in FIG. II. Alveolar bone loss was assessed in the right and left mandibles of both the conventional and germfree rats (control and diabetic) using a modification of a previously described technique (Stralfors, et.al, Archs. Oral. Biol., 12, 1213-1216 (1967); Heijl, et. al., J. […] Periodontal Res., 13, 316-325 (1978)) using an eye-piece micrometer in a dissecting microscope (20× magnification). Because uncontrolled diabetes in the rat results in the massive resorption of skin collagen associated with increased collagenase activity in this tissue, the collagen content of entire skins from the germfree and from the conventional control and diabetic rats, including those treated with minocycline was measured. The techniques used were those described by […] and Golub, (Streptozotocin: Fundamentals and Therapy (Ed. M. K. Agarwal, Elsevier/North-Holland Biomed Press, Chapter 12, pp 161-182, (1981)). The techniques used to measure the collagenolytic enzyme activity of gingival tissue in culture, and in polymorphonuclear leucocytes (PMNLs), are those described by Golub, et. al., (J. Dent. Res., 57, 520-525 (197)8) and Nicoll, et. al., (Experimentia, 37, 315-317, (1981)) with minor modifications.

[3] = system: synovial tissue collagenolytic activity; experiment: Collagenolytic activity in extracts of synovial tissue from patients with rheumatoid arthritis; format: in vivo, human; parameters: Synovial Tissue Collagenolytic Activity (% C^14-collagen degraded) After Minocycline Treatment / % Reduction by Treatment: concentration or dose not given beside the values
Procedure: In each of three patients, the diseased joint tissue on one side was surgically removed for therapeutic reasons. The three patients were then administered minocycline orally for 10 days and the diseased joint (synovial) tissue on the opposite side was surgically removed (for therapeutic reasons) after the course of minocycline treatment was completed. The tissues were coded, stored frozen, and analyzed double blind to eliminate any bias in the development of the data. The tissues were dried, the lipid removed, and the collagenolytic activity in the diseased joint tissues extracted and concentrated. Aliquots of the extract from each diseased joint were incubated in vitro with radiolabelled collagen fibrils for 72 hours at 37° C. to assess collagen destructive (collagenolytic) enzyme activity.

[4] = GCF from the same 4 mm pocket before and after therapy

T1 sequence (O88766 102-466): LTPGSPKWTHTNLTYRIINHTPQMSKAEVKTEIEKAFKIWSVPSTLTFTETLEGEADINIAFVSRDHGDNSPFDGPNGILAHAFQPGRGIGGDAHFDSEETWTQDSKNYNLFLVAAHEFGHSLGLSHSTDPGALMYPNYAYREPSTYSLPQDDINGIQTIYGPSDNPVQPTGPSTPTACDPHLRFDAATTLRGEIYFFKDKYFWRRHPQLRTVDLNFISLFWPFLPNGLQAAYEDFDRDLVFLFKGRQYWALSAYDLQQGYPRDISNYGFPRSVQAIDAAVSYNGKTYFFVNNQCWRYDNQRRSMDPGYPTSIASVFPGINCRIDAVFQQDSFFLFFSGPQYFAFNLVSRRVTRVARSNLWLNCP

SMILES: CN(C)c1ccc(O)c2c1C[C@H]1C[C@H]3[C@H](N(C)C)C(O)=C(C(N)=O)C(=O)[C@@]3(O)C(O)=C1C2=O [minocycline, Minocycline]
- effect on PMNL collagenolytic (collagenase) activity, in words ([1]; Table 1): almost complete inhibition
- Collagenolytic Activity: % ^14 C-collagen gel lysed ([1]; Table 1, PMNL extract + 5 μg/ml, control extract 85.5): 12.4%
- Collagenolytic Activity: % ^14 C-collagen gel lysed ([1]; Table 1, PMNL extract + 20 μg/ml + CaCl2 10 mM): 38.5%
- Collagenolytic Activity: % ^14 C-collagen gel lysed ([1]; Table 1, PMNL extract + 20 μg/ml + CaCl2 50 mM): 82.1%
- Collagenolytic Activity: % ^14 C-collagen gel lysed ([1]; Table 1, PMNL extract + 20 μg/ml, control extract 85.5): 8.3%
- Collagenolytic Activity: % ^14 C-collagen gel lyzed ([1]; Table 2, PMNL extract (30 × 10^6 PMNLs per ml) + 20 ug/ml, control extract 39.0): 4.0%
- densitometric analysis of fluorographs: degradation products ([2]; GCF before and after therapy): reduced the percentage of the total radiolabeled collagenous material present as degradation products
- breakdown of intact ^3 H-collagen by GCF (SDS-PAGE fluorography) [2, 4]: reduced the breakdown of the intact collagen
- production of α^A and α^B collagen digestion fragments by GCF (fluorography) [2, 4]: inhibited the production
- pocket depth ([2]; non-diabetic patient two): essentially unchanged
- reduction of G. I. ([2]; non-diabetic patient two): 26%
- reduction of GCF flow ([2]; non-diabetic patient two): 71%
- reduction of trypsin-activated collagenase in GCF ([2]; non-diabetic patient two): 59%
- reduction of active collagenase in GCF ([2]; non-diabetic patient two, minocycline therapy as in (a)): 86%
- increase of skin collagen levels (germfree diabetic rats; germ-free diabetic rats, 20 mg/day for the last 4 weeks, versus untreated diabetics): 45%
- bone levels (germfree diabetic rats; germfree control, diabetic and minocycline-treated diabetic rats): no differences
- reduction of gingival collagenolytic activity (tissue culture) (germfree diabetic rats; germfree diabetic rats, 20 mg/day by gavage for the last 4 weeks): 70%
- % Reduction by Treatment ([3]; Patient #1): 81.8%
- Synovial Tissue Collagenolytic Activity (% C^14-collagen degraded) After Minocycline Treatment ([3]; Patient #1, oral for 10 days, before treatment 43.0): 7.8%
- % Reduction by Treatment ([3]; Patient #2): 68.8%
- Synovial Tissue Collagenolytic Activity (% C^14-collagen degraded) After Minocycline Treatment ([3]; Patient #2, oral for 10 days, before treatment 41.0): 12.8%
- % Reduction by Treatment ([3]; Patient #3): did not reduce collagenolytic activity much further
- Synovial Tissue Collagenolytic Activity (% C^14-collagen degraded) After Minocycline Treatment ([3]; Patient #3, oral for 10 days, before treatment 18.6): 18.0%
- % Reduction by Treatment ([3]; Patient #3, listed as Minocycline): 3.3%
- reduction of synovial collagenolytic enzyme activity ([3]; patients #1 and 2 (high level of activity)): 69-82%
